Assays:
Type in all cases: physicochemical
[1] = Water content (K. Fischer) and X-ray powder diffraction pattern at room temperature under normal air humidity conditions
Description: In the following examples all temperatures are in degree Centigrade and are uncorrected. The X-ray powder diffraction pattern of azithromycin in the form of a monohydrate obtained according to the following example corresponds to that of azithromycin in the form of a monohydrate. […] Water content (% w/w) is determined by the K. Fischer
To a suspension of 20 g of azithromycin in 83 ml of water, HCl is added until dissolution occurs. The solution obtained is filtrated, in order to remove undissolved particles, and the filtrate obtained is added dropwise to 103 ml of water whilst adjusting the pH to 10 to 11 by addition of 20% NaOH at a temperature of ca. 55° C. A solid precipitates, is filtrated off, washed and dried until a water content of 4.0 to 6.5% is achieved. 18.4 g of azithromycin in the form of a monohydrate in crystalline form are obtained. Water content: 6.0% Water content after 2 days at room temperature under normal air humidity conditions: 6.3% Water content after 13 days at room temperature under normal air humidity conditions: 6.3%

[2] = Stability and comparison example: samples set out for 6 weeks at 75% relative humidity at elevated temperature; potency and degradation by HPLC, water by Karl Fischer, X-ray powder diffraction; settings: 6 weeks under normal air humidity conditions at elevated temperatures
[3] = as above; settings: for Degradation (%) / POTENCY (%): HPLC, anhydrous basis; for POTENCY (%): 75% relative humidity, temperature of 400 (so in the source); for WATER (%): Karl Fischer
Description: • 5.3% of water, and • 2.8% of water are set out for 6 weeks to an environment having a relative humidity of 75% at a temperature of 400. Potency (content) of azithromycin, azithromycin degradation and water content in the samples are determined in week 0, week 2, week 4 and week 6. Potency and degradation are determined on azithromycin anhydrous basis by HPLC. The water content is determined by the Karl Fischer method. Results are Obtained • for azithromycin comprising 5.3% of water as set out in TABLE 1 below, • for azithromycin comprising 2.8% of water as set out in TABLE 2 below:
The potency of azithromycin in % of each sample within the corresponding time period is set out in TABLE 1 and TABLE 2 under “Potency (%)”.
The degradation of azithromycin in % of each sample within the corresponding time period is set out in TABLE 1 and TABLE 2 under “Degradation (%).
The water content in % of each sample within the corresponding time period is indicated in TABLE 1 and TABLE 2 under “Water (%)”.

Degradation (%) ([3]; week 6, 75% humidity, 40° C.) | POTENCY (%) ([3]; week 0) | WATER (%) ([3]; week 0) | Degradation (%) ([3]; week 2, 75% humidity, 40° C.) | WATER (%) ([3]; week 2, 75% humidity, 40° C.) | Degradation (%) ([3]; week 4, 75% humidity, 40° C.) | WATER (%) ([3]; week 4, 75% humidity, 40° C.) | WATER (%) ([3]; week 6, 75% humidity, 40° C.) | POTENCY (%) ([3]; week 6) | SMILES | other results
– | – | – | – | – | – | – | – | – | CC[C@H]1OC(=O)[C@H](C)[C@@H](O[C@H]2C[C@@](C)(OC)[C@@H](O)[C@H](C)O2)[C@H](C)[C@@H](O[C@@H]2O[C@H](C)C[C@H](N(C)C)[C@H]2O)[C@](C)(O)C[C@@H](C)CN(C)[C@H](C)[C@@H](O)[C@]1(C)O [Example, 9-deoxo-9a-aza-9a-methyl-9a-homoerythromycin A] | Water content ([1]; after 2 days at room temperature under normal air humidity conditions): 6.3%; Water content ([1]; after 13 days at room temperature under normal air humidity conditions): 6.3%; Water content ([1]; as obtained after drying, % w/w, K. Fischer): 6.0%; X-ray diffraction powder pattern ([1]; on day 1, on day 2 and on day 13): corresponds to the X-ray diffraction powder pattern of azithromycin in the form of a monohydrate; Crystallinity and X-ray powder diffraction pattern on storage [2]: maintains its crystallinity and its X-ray powder diffraction pattern; Degradation products on storage [2]: contains substantially no degration products
~0.1 | – | – | – | – | – | – | – | – | CC[C@H]1OC(=O)[C@H](C)[C@@H](O[C@H]2C[C@@](C)(OC)[C@@H](O)[C@H](C)O2)[C@H](C)[C@@H](O[C@@H]2O[C@H](C)C[C@H](N(C)C)[C@H]2O)[C@](C)(O)C[C@@H](C)CN(C)[C@H](C)[C@@H](O)[C@]1(C)O [azithromycin according to the present invention] [9-deoxo-9a-aza-9a-methyl-9a-homoerythromycin A] | Water content compared with week 0 ([3]; 40° C., 75% humidity, within 4 weeks and even 6 weeks): remains substantially the same as in week 0; Time for which the X-ray powder diffraction pattern (crystalline structure) is maintained ([3]; normal air humidity conditions, even at elevated temperatures): at least 2 weeks
6.6 | 99.7 | 2.8 | 2.5 | 2.8 | 6.1 | 3.3 | 3.6 | 91.6 | CC[C@H]1OC(=O)[C@H](C)[C@@H](O[C@H]2C[C@@](C)(OC)[C@@H](O)[C@H](C)O2)[C@H](C)[C@@H](O[C@@H]2O[C@H](C)C[C@H](N(C)C)[C@H]2O)[C@](C)(O)C[C@@H](C)CN(C)[C@H](C)[C@@H](O)[C@]1(C)O [azithromycin comprising 2.8% of water, 9-deoxo-9a-aza-9a-methyl-9a-homoerythromycin A, reference compound] | Degradation (%) ([3]; week 2, 75% humidity, 40° C., listed as azithromycin in the form of a monohydrate having a water content of 2.8% to 3.6%): 2.5%; Degradation (%) ([3]; week 6, 75% humidity, 40° C., listed as azithromycin in the form of a monohydrate having a water content of 2.8% to 3.6%): ~7%
0.1 | 99.8 | 5.3 | 0.1 | 5.3 | 0.1 | 5.3 | 5.3 | 99.5 | CC[C@H]1OC(=O)[C@H](C)[C@@H](O[C@H]2C[C@@](C)(OC)[C@@H](O)[C@H](C)O2)[C@H](C)[C@@H](O[C@@H]2O[C@H](C)C[C@H](N(C)C)[C@H]2O)[C@](C)(O)C[C@@H](C)CN(C)[C@H](C)[C@@H](O)[C@]1(C)O [azithromycin comprising 5.3% of water, 9-deoxo-9a-aza-9a-methyl-9a-homoerythromycin A] | POTENCY (%) ([3]; week 2): 98.9%; POTENCY (%) ([3]; week 4): 99.5%

Source: patent publication US6949519B2, “Macrolide solvates” (Sandoz AG, priority 2000, dated 2005)
